In series [1] the target is PDE10 (Homo sapiens, UniProt Q9Y233). In words: PDE10 assay with fluorescent substrate (IMAP, fluorescence polarization). The series is classed as biochemical. On the technique in general: In fluorescence polarisation assays a small probe gives low polarisation when free and higher when bound to something large.
From the text: (§1) c) Phosphodiesterase (PDE) 2A and 10 Assay with Fluorescent Substrate
(§2) The PDE reaction cleaves cAMP to AMP. The IMAP system (Molecular Device) using fluorescence polarization (FP) as detection principle was used to measure enzyme activity. A fluorescent labeled cAMP was used as substrate for the reaction, generating a labeled AMP. The fluorescent AMP binds specifically to the large M(III)-based nano-particles which reduces the rotational speed of the substrate and thus increases its polarization.
(§3) The inhibition of PDE 2A or 10 enzyme activity was assessed using IMAP-Phosphodiesterase-cAMP fluorescence labeled substrate (Molecular Devices, Order No. R7506), IMAP TR-FRET screening express (Molecular Devices, Order No. R8160, the TR-FRET component will not be used) and PDE 2A or PDE10 protein expressed upon baculovirus infection in SF9 cells. The cells were incubated after infection for ˜3 days and protein production was confirmed by Western Blot. The cells were collected by centrifugation and the pellet frozen in liquid nitrogen before it was resuspended in PBS containing 1% Triton X-100 and protease inhibitors.
(§4) All reactions were performed in 384 well plates, Perkin Elmer black optiplates and IMAP reaction buffer with 0.1% Tween20 (kit component)
(§5) Compounds were serial diluted in DMSO. With an intermediate dilution step with reaction buffer DMSO concentration was reduced to achieve 1% DMSO in the assay reaction. Setup of the assay started with 10 μl enzyme (˜10 ng/well, depending on prep. batch), 5 μl compound, reaction was started by addition of 5 μl labeled cAMP (30 nM, final concentration), immediately mixed for 15 seconds on a Eppendorf mixmate (2000 rpm) followed by an incubation at room temperature for 90 minutes in the dark. Reaction is stopped by adding of 60 μl binding buffer for FP/cAMP (kit component).
(§6) Each assay plate contained wells with vehicle controls (1% DMSO) for the measurement of non-inhibited reaction (=100% control) and wells without enzyme as 0% controls.
Series [2] in a line: Metabolic stability in pooled liver microsomes. The series is classed as in vitro ADME. Conditions: human liver microsomes, 37° C., 1 mg/mL microsomal protein, test compound 1 μM, NADPH. The method, then: The metabolic stability of the compounds according to the invention has been investigated as follows:
The metabolic degradation of the test compound was assayed at 37° C. with pooled liver microsomes from various species. The final incubation volume of 100 μl per time point contains TRIS buffer pH 7.6 at room temperature (0.1 M), magnesium chloride (5 mM), microsomal protein (1 mg/mL for human and dog, 0.5 mg/mL for other species) and the test compound at a final concentration of 1 μM. Following a short preincubation period at 37° C., the reactions were initiated by addition of betanicotinamide adenine dinucleotide phosphate, reduced form (NADPH, 1 mM), and terminated by transferring an aliquot into solvent after different time points. […] The half-life was determined by the slope of the semi-logarithmic plot of the concentration-time profile.

Series [3] concerns the target PDE2A (Homo sapiens, UniProt O00408). Nature of the series: PDE 2A assay with fluorescent substrate (IMAP, fluorescence polarization). The series is classed as biochemical. Conditions: read-out: PDE2 IC50.
From the text: as §1, §2, §3, §4, §5, §6

PDE2A, sequence (O00408 whole entry, species assumed): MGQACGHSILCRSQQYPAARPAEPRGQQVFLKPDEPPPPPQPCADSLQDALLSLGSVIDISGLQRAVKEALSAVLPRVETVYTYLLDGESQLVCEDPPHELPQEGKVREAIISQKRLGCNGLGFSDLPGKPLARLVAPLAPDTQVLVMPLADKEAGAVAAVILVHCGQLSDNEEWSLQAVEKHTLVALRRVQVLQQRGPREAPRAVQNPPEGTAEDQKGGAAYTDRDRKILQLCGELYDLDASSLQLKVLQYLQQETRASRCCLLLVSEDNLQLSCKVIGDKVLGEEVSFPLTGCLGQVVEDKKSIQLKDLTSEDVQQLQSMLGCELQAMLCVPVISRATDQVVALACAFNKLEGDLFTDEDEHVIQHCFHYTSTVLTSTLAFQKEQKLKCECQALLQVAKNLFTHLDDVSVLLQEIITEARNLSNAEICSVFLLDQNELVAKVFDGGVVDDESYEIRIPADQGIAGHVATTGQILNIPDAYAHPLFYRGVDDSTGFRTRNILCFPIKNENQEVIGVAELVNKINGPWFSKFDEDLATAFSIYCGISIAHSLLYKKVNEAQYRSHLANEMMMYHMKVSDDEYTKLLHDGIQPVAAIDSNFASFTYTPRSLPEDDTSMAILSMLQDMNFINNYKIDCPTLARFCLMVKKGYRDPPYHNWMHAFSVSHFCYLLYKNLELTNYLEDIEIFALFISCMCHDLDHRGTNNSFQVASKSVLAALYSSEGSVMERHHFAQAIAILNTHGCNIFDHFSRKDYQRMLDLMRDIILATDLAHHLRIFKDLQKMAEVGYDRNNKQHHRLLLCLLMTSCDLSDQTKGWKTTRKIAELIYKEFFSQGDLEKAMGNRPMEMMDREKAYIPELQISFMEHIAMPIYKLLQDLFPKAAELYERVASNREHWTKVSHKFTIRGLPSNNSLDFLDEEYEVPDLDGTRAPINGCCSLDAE
PDE10, sequence (Q9Y233 whole entry, species assumed): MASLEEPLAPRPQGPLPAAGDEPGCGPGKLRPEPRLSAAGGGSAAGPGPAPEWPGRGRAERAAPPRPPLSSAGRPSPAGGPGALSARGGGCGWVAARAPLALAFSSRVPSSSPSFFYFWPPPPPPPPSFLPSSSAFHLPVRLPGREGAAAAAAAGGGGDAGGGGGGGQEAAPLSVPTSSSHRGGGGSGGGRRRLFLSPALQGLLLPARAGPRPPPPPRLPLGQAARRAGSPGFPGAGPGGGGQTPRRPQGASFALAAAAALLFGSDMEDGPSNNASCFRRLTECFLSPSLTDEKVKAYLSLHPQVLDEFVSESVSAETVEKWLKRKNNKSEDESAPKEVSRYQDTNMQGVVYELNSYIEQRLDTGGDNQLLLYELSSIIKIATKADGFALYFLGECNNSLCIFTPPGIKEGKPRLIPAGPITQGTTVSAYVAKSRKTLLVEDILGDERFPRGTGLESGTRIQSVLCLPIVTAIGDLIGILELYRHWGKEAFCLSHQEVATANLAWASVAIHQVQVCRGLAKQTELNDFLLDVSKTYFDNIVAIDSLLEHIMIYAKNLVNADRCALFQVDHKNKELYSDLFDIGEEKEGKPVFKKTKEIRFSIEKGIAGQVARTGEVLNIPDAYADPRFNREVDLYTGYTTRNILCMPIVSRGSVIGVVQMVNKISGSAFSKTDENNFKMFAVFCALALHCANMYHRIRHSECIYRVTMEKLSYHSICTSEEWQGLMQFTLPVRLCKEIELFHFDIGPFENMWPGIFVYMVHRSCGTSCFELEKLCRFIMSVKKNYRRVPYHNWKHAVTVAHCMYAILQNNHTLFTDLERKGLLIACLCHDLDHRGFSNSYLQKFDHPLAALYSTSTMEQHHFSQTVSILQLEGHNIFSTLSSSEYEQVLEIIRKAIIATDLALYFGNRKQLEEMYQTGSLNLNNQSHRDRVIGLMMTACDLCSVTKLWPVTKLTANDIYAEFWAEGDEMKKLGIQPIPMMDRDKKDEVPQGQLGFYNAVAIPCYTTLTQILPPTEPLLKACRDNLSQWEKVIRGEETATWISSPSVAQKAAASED

In series [1], `Cc1nc2ccc(C3CC3)nc2n2c(-c3cc(OC4COCC4O)ccc3Cl)nnc12` (racemic) [Example 56] returned an IC50 of 0.061 µM.
On to `Cc1ccc(OC2COCC2O)cc1-c1nnc2c(C)nc3ccc(C4CC4)nc3n12` (racemic) [Example 57], for which the “Half-life - t½” value in series [2] worked out at 2.17 h.
`Cc1nc2ccc(C3CC3)nc2n2c(-c3cc(OC4COCC4O)ccc3Cl)nnc12` (racemic) [Example 58a]: the “Half-life - t½” value in series [2] is 2.17 h.
Regarding `Cc1nc2ccc(C3CC3)nc2n2c(-c3cc(C4(O)CCOC4)ccc3Cl)nnc12` (racemic) [Example 97], the 50% inhibitory concentration (IC50) in series [3] was determined as 0.004 µM.
In series [1], `Cc1nc2ccc(C3CC3)nc2n2c(-c3cc(C4(O)CCOCC4O)ccc3F)nnc12` (racemic) [Example 105] registered an IC50 of 1.54 µM.
Regarding `Cc1ccc(OC2COCC2O)cc1-c1nnc2c(C)nc3ccc(C4CC4)nc3n12` (single isomer, unassigned) [Example 57a], the “Half-life - t½” value in series [2] stood at 2.17 h.
With `Cc1nc2ccc(C3CC3)nc2n2c(-c3cc(OC4COCC4O)ccc3Cl)nnc12` (single isomer, unassigned) [Example 58b], the “Half-life - t½” value in series [2] was 2.17 h.
Same read-out and setting: with `Cc1nc2ccc(C3CC3)nc2n2c(-c3cc(OC4COCC4O)ccc3Cl)nnc12` (single isomer, unassigned) [Example 58c] the figure was 2.17 h.
Turning to `Cc1nc2ccc(C3CC3)nc2n2c(-c3cc(C4(O)CCOC4)ccc3Cl)nnc12` (single isomer, unassigned) [Example 97a], the concentration for half-maximal inhibition (IC50) in series [1] is 5.94 µM.
The same measure, in the same setting: with `Cc1nc2ccc(C3CC3)nc2n2c(-c3cc(C4(O)CCOC4)ccc3Cl)nnc12` (single isomer, unassigned) [Example 97b] the figure was 0.891 µM.
On to `Cc1nc2cccnc2n2c(-c3cc(C4(O)CCOC4)ccc3Cl)nnc12` (single isomer, unassigned) [Example 98], for which the 50% inhibitory concentration (IC50) in series [1] was found to be 1.56 µM; in series [3], 0.139 µM.
The corresponding values for `Cc1nc2ccc(C(F)(F)F)nc2n2c(-c3cc(OC4COCC4O)ccc3F)nnc12` (single isomer, unassigned) [Example 106a] are 1.41 µM and 0.429 µM.
In the same order, the values of `Cc1nc2ccc(C(F)(F)F)nc2n2c(-c3cc(OC4COCC4O)ccc3F)nnc12` (single isomer, unassigned) [Example 106b] are 2.5 µM and 0.05 µM.
For `Cc1nc2ccc(C3CC3)nc2n2c(-c3cc(OC4COCCC4O)ccc3F)nnc12` (single isomer, unassigned) [Example 108a], the half-maximal inhibitory concentration (IC50) in series [3] turned out to be […].
On to `Cc1nc2ccc(C3CC3)nc2n2c(-c3cc(OC4COCCC4O)ccc3F)nnc12` (single isomer, unassigned) [Example 108b], for which the IC50 worked out at 0.594 µM in series [1] and […] in series [3].
As to `Cc1nc2ccc(C3CC3)nc2n2c(-c3cc(OC4CCOCC4O)ccc3F)nnc12` (single isomer, unassigned) [Example 108c], the IC50 in series [1] is 0.262 µM.
Still for that read-out and setting: with `Cc1nc2ccc(C3CC3)nc2n2c(-c3cc(OC4CCOCC4O)ccc3F)nnc12` (single isomer, unassigned) [Example 108d] the figure was 0.63 µM.
As to `Cc1nc2ccc(C3CC3)nc2n2c(-c3cc(OC4COCCC4O)ccc3Cl)nnc12` (single isomer, unassigned) [Example 109a], the half-inhibitory concentration (IC50) was 1.67 µM in series [1] and 0.014 µM in series [3].
Turning to `Cc1nc2ccc(C3CC3)nc2n2c(-c3cc(OC4CCOCC4O)ccc3Cl)nnc12` (single isomer, unassigned) [Example 109b], the figures for the 50% inhibitory concentration (IC50) in series [1] and in series [3] were 1.09 µM and 0.009 µM, respectively.
Turning to `Cc1nc2ccc(C3CC3)nc2n2c(-c3cc(OC4CCOCC4O)ccc3Cl)nnc12` (single isomer, unassigned) [Example 109c], the 50% inhibitory concentration (IC50) was found to be 1.36 µM in series [1] and 0.009 µM in series [3].
The corresponding values for `Cc1nc2ccc(C3CC3)nc2n2c(-c3cc(OC4COCCC4O)ccc3Cl)nnc12` (single isomer, unassigned) [Example 109d] are 1.83 µM and 0.004 µM.
For `Cc1nc2ccc(C(F)(F)F)nc2n2c(-c3cc(OC4COCCC4O)ccc3F)nnc12` (single isomer, unassigned) [Example 110b], the concentration for half-maximal inhibition (IC50) is more than 10 µM in series [1] and 0.388 µM in series [3].
As for `Cc1nc2ccc(C(F)(F)F)nc2n2c(-c3cc(OC4CCOCC4O)ccc3F)nnc12` (single isomer, unassigned) [Example 110d], the IC50 in series [3] came out at 0.467 µM.
Consider `Cc1nc2ccc(C3CC3)nc2n2c(-c3cc(O)ccc3F)nnc12` [Example 5], for which the 50% inhibitory concentration (IC50) in series [1] was determined as 0.005 µM.
`Cc1ccc(O)cc1-c1nnc2c(C)nc3ccc(C4CC4)nc3n12` [Example 6]: the 50% inhibitory concentration (IC50) in series [1] turned out to be 0.01 µM; in series [3] it was 0.003 µM.
The corresponding values for `Cc1ccc(O)cc1-c1nnc2c(C)nc3ccc(C(C)C)nc3n12` [Example 7] are 0.016 µM and 0.003 µM.
With `Cc1nc2ccc(C(C)C)nc2n2c(-c3cc(O)ccc3F)nnc12` [Example 8], the IC50 amounted to 0.008 µM in series [1] and 0.002 µM in series [3].
As to `Cc1nc2ccc(C3CC3)nc2n2c(-c3cc(O)ccc3Cl)nnc12` [Example 9], the IC50 was 0.015 µM in series [1] and 0.001 µM in series [3].
In the same order, the values of `Cc1cnc2c(c1)nc(C)c1nnc(-c3cc(O)ccc3Cl)n12` [Example 11] are 0.123 µM and 0.059 µM.
The corresponding values for `Cc1nc2ccc(C(F)(F)F)nc2n2c(-c3cc(O)ccc3Cl)nnc12` [Example 12] are 0.044 µM and 0.009 µM.
Take `Cc1ccc(O)cc1-c1nnc2c(C)nc3ccc(C(F)(F)F)nc3n12` [Example 12a]: the IC50 in series [1] was found to be 0.17 µM; in series [3], 0.036 µM.
For `Cc1nc2cccnc2n2c(-c3cc(OC[C@@H](C)O)ccc3Cl)nnc12` [Example 17], the “Half-life - t½” value in series [2] amounted to 2.17 h.
On to `Cc1nc2cccnc2n2c(-c3cc(OCC4(O)CC4)ccc3Cl)nnc12` [Example 43a], for which the half-maximal inhibitory concentration (IC50) in series [1] was determined as 4.51 µM; in series [3] it was 0.109 µM.
On to `Cc1nc2cccnc2n2c(-c3cc(OCC4(O)CCC4)ccc3F)nnc12` [Example 53], for which the IC50 in series [1] amounted to 2.83 µM; in series [3] it was 0.14 µM.
With `Cc1ccc2nc(C)c3nnc(-c4cc(CO)ccc4Cl)n3c2n1` [Example 60], half-maximal inhibition in series [1] (IC50) required 0.285 µM.
For the molecule `CCCC(O)c1ccc(Cl)c(-c2nnc3c(C)nc4ccc(C)nc4n23)c1` (stereo not drawn) [Example 61], the half-maximal inhibitory concentration (IC50) in series [1] worked out at 0.534 µM; in series [3] it was 0.004 µM.
`Cc1nc2cccnc2n2c(-c3cc(CCC(C)(C)O)ccc3F)nnc12` [Example 65] gave an IC50 in series [1] of 3.54 µM.
`Cc1nc2ccc(C3CC3)nc2n2c(-c3cc(CCC(C)(C)O)ccc3Cl)nnc12` [Example 69]: the half-maximal inhibitory concentration (IC50) in series [1] was found to be 0.891 µM; in series [3] it was 0.001 µM.
In the same order, the values of `Cc1nc2cccnc2n2c(-c3cc(C4(O)CCOC4)ccc3Cl)nnc12` (stereo not drawn) [Example 74] are 2.34 µM and 0.131 µM.
The molecule `Cc1nc2ccc(C(C)C)nc2n2c(-c3cc(C(C)(C)O)ccc3Cl)nnc12` [Example 77] registered an IC50 in series [1] of 1.4 µM.
Regarding `Cc1ccc(C(C)(C)O)cc1-c1nnc2c(C)nc3ccc(C(C)C)nc3n12` [Example 78], the figures for the IC50 in series [1] and in series [3] were 2.85 µM and 0.01 µM, respectively.
Take `Cc1ccc(C(C)(C)O)cc1-c1nnc2c(C)nc3cc(C(C)C)cnc3n12` [Example 79]: the half-maximal inhibitory concentration (IC50) in series [3] is 0.144 µM.
Consider `Cc1ccc(CC(C)(C)O)cc1-c1nnc2c(C)nc3ccc(C4CC4)nc3n12` [Example 81], for which the IC50 in series [1] worked out at 5.38 µM; in series [3], 0.007 µM.
As for `Cc1nc2cccnc2n2c(-c3cc(C4(O)CCC4)ccc3F)nnc12` [Example 86], the IC50 in series [1] was 5.75 µM; in series [3], 0.434 µM.
In the same order, the values of `Cc1ccc2nc(C)c3nnc(-c4cc(C5(O)CCC5)ccc4F)n3c2n1` [Example 90] are 0.485 µM and 0.103 µM.
Consider `Cc1nc2ccc(C(C)C)nc2n2c(-c3cc(C4(O)CCC4)ccc3Cl)nnc12` [Example 91], for which the IC50 in series [1] came to 0.077 µM; in series [3], 0.001 µM.
As to `Cc1nc2ccc(C(C)C)nc2n2c(-c3cc(C4(O)CCC4)ccc3F)nnc12` [Example 92], the values for the half-maximal inhibitory concentration (IC50) in series [1] and in series [3] were 0.553 µM and 0.002 µM, respectively.
For the molecule `Cc1nc2ccc(C3CC3)nc2n2c(-c3cc(C4(O)CCOCC4)ccc3Cl)nnc12` [Example 94], the IC50 turned out to be 2.72 µM in series [1] and 0.001 µM in series [3].
Consider `Cc1nc2ccc(C3CC3)nc2n2c(-c3cc(C4(O)CCOCC4)ccc3F)nnc12` [Example 95], for which the IC50 in series [1] is 1.37 µM; in series [3], 0.005 µM.
Consider `Cc1nc2ccc(C(F)(F)F)nc2n2c(-c3cc(C4(O)CCOCC4)ccc3Cl)nnc12` [Example 96], for which the IC50 in series [3] was 0.043 µM.
Still for that read-out and setting: next, `Cc1nc2ccc(C(F)(F)F)nc2n2c(-c3cc(C4(O)CCOCC4)ccc3F)nnc12` [Example 96a]: 0.199 µM; `Cc1ccc(C2(O)CCOCC2)cc1-c1nnc2c(C)nc3ccc(C(F)(F)F)nc3n12` [Example 96b]: 0.087 µM.
`Cc1nc2ccc(C(F)(F)F)nc2n2c(-c3cc(C4(O)CCOC4)ccc3F)nnc12` (stereo not drawn) [Example 96c]: inhibition in series [1] was half-maximal at 7.46 µM (IC50).
Regarding `Cc1nc2ccc(C3CC3)nc2n2c(-c3cc(C(C)(C)CO)ccc3F)nnc12` [Example 101], inhibition in series [1] was half-maximal at 1.13 µM (IC50).
Consider `Cc1ccc(C2(O)CCOCC2)cc1-c1nnc2c(C)nc3ccc(C4CC4)nc3n12` [Example 103], for which the IC50 in series [1] is 1.01 µM; in series [3], 0.003 µM.
In the same order, the values of `Cc1nc2ccc(C(F)(F)F)nc2n2c(-c3cc(C(C)(C)O)ccc3F)nnc12` [Example 103c] are 7980 µM and 0.622 µM.

One may read the IC50 as the concentration that gives 50% inhibition.
